ChEMBL document CHEMBL2406996, “Bioactive ent-kaurane diterpenoids from Isodon rosthornii” (J Nat Prod, 2013)
pIC50: −log10 of the molar value. Residues, ends and D or L forms follow the SMILES beside them. *: point of attachment. Cbz = O=C(OCc1ccccc1)*

How the values were obtained:
[1] = system: RAW264.7; assay: Antiinflammatory activity in mouse RAW264.7 cells assessed as inhibition of LPS-induced nitric oxide production after 18 hrs by Griess method; assay type: functional, cell-based; conditions: RAW264.7, 18 h
[2] = system: SW480; assay: Cytotoxicity against human SW480 cells after 48 hrs by MTT assay; assay type: functional, cell-based; conditions: SW480, 48 h
[3] = system: HL-60; assay: Cytotoxicity against human HL60 cells after 48 hrs by MTT assay; assay type: functional, cell-based; conditions: HL-60, 48 h
[4] = system: A549; assay: Cytotoxicity against human A549 cells after 48 hrs by MTT assay; assay type: functional, cell-based; conditions: A549, 48 h
[5] = system: MCF7; assay: Cytotoxicity against human MCF7 cells after 48 hrs by MTT assay; assay type: functional, cell-based; conditions: MCF7, 48 h
[6] = system: SMMC-7721; assay: Cytotoxicity against human SMMC7721 cells after 48 hrs by MTT assay; assay type: functional, cell-based; conditions: SMMC-7721, 48 h
[7] = system: RAW264.7; assay: Cytotoxicity against mouse RAW264.7 cells after 18 hrs by MTS assay; assay type: cell-based; conditions: raw264.7, 18 h

SMILES | pIC50 [1] | pIC50 [2] | pIC50 [3] | pIC50 [4] | pIC50 [5] | pIC50 [6] | Activity [7]
C[C@@H]1[C@@H]2C[C@H](O)[C@H]3[C@]45CCCC(C)(C)[C@H]4[C@H](O)[C@](O)(OC5)[C@@]3([C@@H]1O)[C@@H]2O | < 4.60 | < 5.00 | < 5.00 | < 5.00 | < 5.00 | < 5.00 | Non-toxic
C[C@@H]1[C@@H]2CC[C@H]3[C@]45CCCC(C)(C)[C@H]4[C@H](O)[C@](O)(OC5=O)[C@@]3([C@@H]1O)[C@@H]2O | < 4.60 | < 5.00 | < 5.00 | < 5.00 | < 5.00 | < 5.00 | Non-toxic
C=C1[C@@H](O)[C@@]23C(=CC[C@@H]1[C@H]2O)[C@@]12CO[C@@]3(O)[C@@H](O)[C@@H]1C(C)(C)CC[C@@H]2O | < 4.60 | < 5.00 | < 5.00 | < 5.00 | < 5.00 | < 5.00 | Non-toxic
C=C1C(=O)[C@]23C[C@H]1CC=C2[C@@]12CO[C@@]3(O)[C@@H](O)[C@@H]1C(C)(C)CC[C@@H]2O | 5.70 | 5.47 | 5.06 | 5.34 | 5.48 | 5.46 | Non-toxic
C=C1[C@H]2C[C@@H]3OC(=O)[C@@H]4C(C)(C)CC[C@@H]5OC(=O)[C@](C2)([C@@H]1O)[C@@H]3[C@]54C=O | 5.70 | < 5.00 | 5.21 | < 5.00 | < 5.00 | < 5.00 | Non-toxic
C=C1C(=O)[C@]23[C@H](O)[C@H]1C[C@@H](O)[C@H]2[C@]12CCCC(C)(C)[C@H]1[C@H](O)[C@@]3(O)OC2 | 5.77 | 5.60 | 5.46 | 5.07 | 5.29 | 5.35 | Non-toxic
C=C1C(=O)[C@]23C[C@H]1CC[C@H]2[C@@]12CO[C@]3(O)[C@@H](O)[C@@H]1C(C)(C)CC[C@@H]2O | 5.47 | 5.49 | 5.10 | 5.25 | 5.38 | 5.23 | Non-toxic
C=C1[C@@H](O)[C@]23[C@H](O)[C@H]1CC[C@H]2[C@@]12C(=O)O[C@]3(O)[C@@H](O)[C@@H]1C(C)(C)CC[C@@H]2O | 5.21 |  |  |  |  |  | Non-toxic
C=C1C(=O)[C@]23[C@H](O)[C@H]1CC[C@H]2[C@@]12[C@@H](OC)O[C@]3(O)[C@@H](O)[C@@H]1C(C)(C)CC[C@@H]2O | < 4.60 | 5.03 | 5.15 | < 5.00 | < 5.00 | < 5.00 | Non-toxic
C=C1[C@@H](O)[C@]23[C@H](O)[C@H]1CC[C@H]2[C@@]12C(OC)O[C@]3(O)[C@@H](O)[C@@H]1C(C)(C)CC[C@@H]2O (stereo partly specified) | < 4.60 | < 5.00 | 5.28 | < 5.00 | < 5.00 | < 5.00 | Non-toxic
C=C1C(=O)[C@@]23[C@@H]4OC(C)(C)O[C@@]25OC[C@]2(CCCC(C)(C)[C@H]2[C@@H]5O)[C@@H]3[C@@H](O)C[C@@H]14 | 5.96 | 5.70 | 5.82 | 5.47 | 5.74 | 5.59 | Non-toxic
C=C1[C@H]2CC3=C4[C@](C2)(C(=O)O[C@H]2CCC(C)(C)[C@@H]([C@@H](O)O3)[C@]42C=O)[C@@H]1OC(C)=O | < 4.60 | < 5.00 | < 5.00 | < 5.00 | < 5.00 | < 5.00 | Non-toxic
C=C1[C@H]2CC[C@@H]3[C@](C2)(C(=O)O[C@@H]2CCC(C)(C)[C@H]4[C@H](O)O[C@@H](OC)[C@@]432)[C@@H]1OC(C)=O | < 4.60 | < 5.00 | < 5.00 | < 5.00 | < 5.00 | < 5.00 | Non-toxic
C=C1C(=O)[C@]23[C@H](OC(C)=O)[C@H]1C[C@H](OC(C)=O)[C@H]2[C@]12CCCC(C)(C)[C@H]1[C@H](O)[C@]3(O)OC2 | 5.20 | 5.49 | 5.34 | < 5.00 | < 5.00 | < 5.00 | Non-toxic
C=C1C(=O)[C@]23[C@H](O)[C@H]1CC[C@H]2[C@@]12[C@@H](OCCCC)O[C@@]3(O)[C@@H](O)[C@@H]1C(C)(C)CC[C@@H]2O (mixture of isomers) | 5.82 | 5.55 | 5.92 | 5.41 | 5.59 | 5.49 | Non-toxic
C=C1C(=O)[C@]23[C@H](O)[C@H]1CC[C@H]2[C@@]12[C@H](OCC)O[C@@]3(O)[C@@H](O)[C@@H]1C(C)(C)CC[C@@H]2O (relative stereo) | 5.41 | 5.11 | 5.23 | < 5.00 | 5.08 | < 5.00 | Non-toxic
C=C1[C@H]2C[C@H](O)[C@@H]3[C@](C2)(C(=O)O[C@@H]2CCC(C)(C)[C@H]4[C@H](O)O[C@H](OC)[C@@]432)[C@@H]1OC(C)=O (relative stereo) | 5.82 | 5.48 | 5.37 | < 5.00 | 5.46 | < 5.00 | Non-toxic
C=C1C(=O)[C@]23[C@H](O)[C@H]1CC[C@H]2[C@@]12CO[C@@]3(O)[C@@H](O)[C@@H]1C(C)(C)CC[C@@H]2OC(C)=O [LASIOKAURIN] | 5.72 | 5.62 | 5.74 | 5.17 | 5.60 | 5.57 | Non-toxic
CC(C)C[C@@H](C=O)NC(=O)[C@H](CC(C)C)NC(=O)[C@H](CC(C)C)NC(=O)OCc1ccccc1 [MG-132] (Cbz-Leu-Leu-Leu-aldehyde) | 7.00 |  |  |  |  |  | Non-toxic
C=C1C(=O)[C@]23[C@H](O)[C@H]1CC[C@H]2[C@@]12CO[C@]3(O)[C@@H](O)[C@@H]1C(C)(C)CC[C@@H]2O [ORIDONIN] | 5.28 | < 5.00 | 5.60 | < 5.00 | < 5.00 | < 5.00 | Non-toxic
CC(=O)O[C@H]1C(=O)[C@@]2(C)[C@H]([C@H](OC(=O)c3ccccc3)[C@]3(O)C[C@H](OC(=O)[C@H](O)[C@@H](NC(=O)c4ccccc4)c4ccccc4)C(C)=C1C3(C)C)[C@]1(OC(C)=O)CO[C@@H]1C[C@@H]2O [PACLITAXEL] |  | 7.40 | > 8.10 |  | > 8.10 | > 8.10 | 
C=C1C(=O)[C@]23[C@H](O)[C@H]1CC[C@H]2[C@@]12C(OC)O[C@@]3(O)[C@@H](O)[C@@H]1C(C)(C)CC[C@H]2O (stereo partly specified) [RABDOTERNIN E] | 5.64 | 5.39 | 5.59 | < 5.00 | < 5.00 | < 5.00 | Non-toxic
